# How the values were obtained:
# Assay type in all cases: functional
# Aspergillus flavus [1] = assay: Antifungal activity against Aspergillus flavus after 72 hrs by agar well diffusion method
# Bacillus subtilis [2] = assay: Antibacterial activity against Bacillus subtilis at 100 ug/ml after 24 hrs by agar well diffusion method; conditions: read-out: DIZ
# Rhizoctonia solani [3] = assay: Antifungal activity against Rhizoctonia solani at 50 ug/ml after 72 hrs by agar well diffusion method; conditions: read-out: DIZ
# Aspergillus flavus [4] = assay: Antifungal activity against Aspergillus flavus at 500 ug/ml after 72 hrs by agar well diffusion method; conditions: read-out: DIZ
# Bacillus subtilis [5] = assay: Antibacterial activity against Bacillus subtilis after 24 hrs by agar well diffusion method
# Aspergillus niger [6] = assay: Antifungal activity against Aspergillus niger at 200 ug/ml after 72 hrs by agar well diffusion method; conditions: read-out: DIZ
# Aspergillus niger [7] = assay: Antifungal activity against Aspergillus niger at 50 ug/ml after 72 hrs by agar well diffusion method; conditions: read-out: DIZ
# Bacillus subtilis [8] = assay: Antibacterial activity against Bacillus subtilis at 200 ug/ml after 24 hrs by agar well diffusion method; conditions: read-out: DIZ
# Klebsiella pneumoniae [9] = assay: Antibacterial activity against Klebsiella pneumoniae at 500 ug/ml after 24 hrs by agar well diffusion method; conditions: read-out: DIZ
# Aspergillus flavus [10] = assay: Antifungal activity against Aspergillus flavus at 50 ug/ml after 72 hrs by agar well diffusion method; conditions: read-out: DIZ
# Staphylococcus aureus [11] = assay: Antibacterial activity against Staphylococcus aureus ATCC 6538 at 50 ug/ml after 24 hrs by agar well diffusion method; conditions: ATCC 6538, 24 h, read-out: DIZ
# Aspergillus niger [12] = assay: Antifungal activity against Aspergillus niger after 72 hrs by agar well diffusion method
# Escherichia coli [13] = assay: Antibacterial activity against Escherichia coli ATCC 8739 at 500 ug/ml after 24 hrs by agar well diffusion method; conditions: ATCC 8739, 24 h, read-out: DIZ
# Staphylococcus aureus [14] = assay: Antibacterial activity against Staphylococcus aureus ATCC 6538 after 24 hrs by agar well diffusion method; conditions: ATCC 6538, 24 h
# Fusarium oxysporum [15] = assay: Antifungal activity against Fusarium oxysporum at 200 ug/ml after 72 hrs by agar well diffusion method; conditions: read-out: DIZ
# Aspergillus niger [16] = assay: Antifungal activity against Aspergillus niger at 500 ug/ml after 72 hrs by agar well diffusion method; conditions: read-out: DIZ
# Aspergillus flavus [17] = assay: Antifungal activity against Aspergillus flavus at 200 ug/ml after 72 hrs by agar well diffusion method; conditions: read-out: DIZ
# Escherichia coli [18] = assay: Antibacterial activity against Escherichia coli ATCC 8739 at 300 ug/ml after 24 hrs by agar well diffusion method; conditions: ATCC 8739, 24 h, read-out: DIZ
# Aspergillus niger [19] = assay: Antifungal activity against Aspergillus niger at 100 ug/ml after 72 hrs by agar well diffusion method; conditions: read-out: DIZ
# Bacillus subtilis [20] = assay: Antibacterial activity against Bacillus subtilis at 500 ug/ml after 24 hrs by agar well diffusion method; conditions: read-out: DIZ
# Klebsiella pneumoniae [21] = assay: Antibacterial activity against Klebsiella pneumoniae at 100 ug/ml after 24 hrs by agar well diffusion method; conditions: read-out: DIZ
# Klebsiella pneumoniae [22] = assay: Antibacterial activity against Klebsiella pneumoniae at 200 ug/ml after 24 hrs by agar well diffusion method; conditions: read-out: DIZ
# Staphylococcus aureus [23] = assay: Antibacterial activity against Staphylococcus aureus ATCC 6538 at 100 ug/ml after 24 hrs by agar well diffusion method; conditions: ATCC 6538, 24 h, read-out: DIZ
# Fusarium oxysporum [24] = assay: Antifungal activity against Fusarium oxysporum at 100 ug/ml after 72 hrs by agar well diffusion method; conditions: read-out: DIZ
# Escherichia coli [25] = assay: Antibacterial activity against Escherichia coli ATCC 8739 at 200 ug/ml after 24 hrs by agar well diffusion method; conditions: ATCC 8739, 24 h, read-out: DIZ
# Rhizoctonia solani [26] = assay: Antifungal activity against Rhizoctonia solani at 500 ug/ml after 72 hrs by agar well diffusion method; conditions: read-out: DIZ
# Staphylococcus aureus [27] = assay: Antibacterial activity against Staphylococcus aureus ATCC 6538 at 300 ug/ml after 24 hrs by agar well diffusion method; conditions: ATCC 6538, 24 h, read-out: DIZ
# Rhizoctonia solani [28] = assay: Antifungal activity against Rhizoctonia solani at 300 ug/ml after 72 hrs by agar well diffusion method; conditions: read-out: DIZ
# Rhizoctonia solani [29] = assay: Antifungal activity against Rhizoctonia solani after 72 hrs by agar well diffusion method
# Klebsiella pneumoniae [30] = assay: Antibacterial activity against Klebsiella pneumoniae at 50 ug/ml after 24 hrs by agar well diffusion method; conditions: read-out: DIZ
# Escherichia coli [31] = assay: Antibacterial activity against Escherichia coli ATCC 8739 at 100 ug/ml after 24 hrs by agar well diffusion method; conditions: ATCC 8739, 24 h, read-out: DIZ
# Fusarium oxysporum [32] = assay: Antifungal activity against Fusarium oxysporum after 72 hrs by agar well diffusion method
# Rhizoctonia solani [33] = assay: Antifungal activity against Rhizoctonia solani at 100 ug/ml after 72 hrs by agar well diffusion method; conditions: read-out: DIZ
# Klebsiella pneumoniae [34] = assay: Antibacterial activity against Klebsiella pneumoniae at 300 ug/ml after 24 hrs by agar well diffusion method; conditions: read-out: DIZ
# Staphylococcus aureus [35] = assay: Antibacterial activity against Staphylococcus aureus ATCC 6538 at 200 ug/ml after 24 hrs by agar well diffusion method; conditions: ATCC 6538, 24 h, read-out: DIZ
# Klebsiella pneumoniae [36] = assay: Antibacterial activity against Klebsiella pneumoniae after 24 hrs by agar well diffusion method
# Staphylococcus aureus [37] = assay: Antibacterial activity against Staphylococcus aureus ATCC 6538 at 500 ug/ml after 24 hrs by agar well diffusion method; conditions: ATCC 6538, 24 h, read-out: DIZ
# Fusarium oxysporum [38] = assay: Antifungal activity against Fusarium oxysporum at 300 ug/ml after 72 hrs by agar well diffusion method; conditions: read-out: DIZ
# Aspergillus niger [39] = assay: Antifungal activity against Aspergillus niger at 300 ug/ml after 72 hrs by agar well diffusion method; conditions: read-out: DIZ
# Escherichia coli [40] = assay: Antibacterial activity against Escherichia coli ATCC 8739 after 24 hrs by agar well diffusion method; conditions: ATCC 8739, 24 h
# Fusarium oxysporum [41] = assay: Antifungal activity against Fusarium oxysporum at 50 ug/ml after 72 hrs by agar well diffusion method; conditions: read-out: DIZ
# Escherichia coli [42] = assay: Antibacterial activity against Escherichia coli ATCC 8739 at 50 ug/ml after 24 hrs by agar well diffusion method; conditions: ATCC 8739, 24 h, read-out: DIZ
# Rhizoctonia solani [43] = assay: Antifungal activity against Rhizoctonia solani at 200 ug/ml after 72 hrs by agar well diffusion method; conditions: read-out: DIZ
# Aspergillus flavus [44] = assay: Antifungal activity against Aspergillus flavus at 300 ug/ml after 72 hrs by agar well diffusion method; conditions: read-out: DIZ
# Fusarium oxysporum [45] = assay: Antifungal activity against Fusarium oxysporum at 500 ug/ml after 72 hrs by agar well diffusion method; conditions: read-out: DIZ
# Bacillus subtilis [46] = assay: Antibacterial activity against Bacillus subtilis at 300 ug/ml after 24 hrs by agar well diffusion method; conditions: read-out: DIZ
# Bacillus subtilis [47] = assay: Antibacterial activity against Bacillus subtilis at 50 ug/ml after 24 hrs by agar well diffusion method; conditions: read-out: DIZ
# Aspergillus flavus [48] = assay: Antifungal activity against Aspergillus flavus at 100 ug/ml after 72 hrs by agar well diffusion method; conditions: read-out: DIZ
smiles,measurement,setting,value
COc1ccc2[nH]cc(C=C3C(=O)OC(C)(C)OC3=O)c2c1,MIC,Aspergillus flavus [1],35 µg/mL
same,zone of inhibition at 100 µg/mL,Bacillus subtilis [2],9 mm
same,zone of inhibition at 50 µg/mL,Rhizoctonia solani [3],10 mm
same,zone of inhibition at 500 µg/mL,Aspergillus flavus [4],22 mm
same,MIC,Bacillus subtilis [5],20 µg/mL
same,zone of inhibition at 200 µg/mL,Aspergillus niger [6],15 mm
same,zone of inhibition at 50 µg/mL,Aspergillus niger [7],7 mm
same,zone of inhibition at 200 µg/mL,Bacillus subtilis [8],11 mm
same,zone of inhibition at 500 µg/mL,Klebsiella pneumoniae [9],34 mm
same,zone of inhibition at 50 µg/mL,Aspergillus flavus [10],5 mm
same,zone of inhibition at 50 µg/mL,Staphylococcus aureus [11],8 mm
same,MIC,Aspergillus niger [12],30 µg/mL
same,zone of inhibition at 500 µg/mL,Escherichia coli [13],33 mm
same,MIC,Staphylococcus aureus [14],20 µg/mL
same,zone of inhibition at 200 µg/mL,Fusarium oxysporum [15],18 mm
same,zone of inhibition at 500 µg/mL,Aspergillus niger [16],24 mm
same,zone of inhibition at 200 µg/mL,Aspergillus flavus [17],12 mm
same,zone of inhibition at 300 µg/mL,Escherichia coli [18],22 mm
same,zone of inhibition at 100 µg/mL,Aspergillus niger [19],12 mm
same,zone of inhibition at 500 µg/mL,Bacillus subtilis [20],22 mm
same,zone of inhibition at 100 µg/mL,Klebsiella pneumoniae [21],16 mm
same,zone of inhibition at 200 µg/mL,Klebsiella pneumoniae [22],20 mm
same,zone of inhibition at 100 µg/mL,Staphylococcus aureus [23],12 mm
same,zone of inhibition at 100 µg/mL,Fusarium oxysporum [24],15 mm
same,zone of inhibition at 200 µg/mL,Escherichia coli [25],17 mm
same,zone of inhibition at 500 µg/mL,Rhizoctonia solani [26],31 mm
same,zone of inhibition at 300 µg/mL,Staphylococcus aureus [27],18 mm
same,zone of inhibition at 300 µg/mL,Rhizoctonia solani [28],24 mm
same,MIC,Rhizoctonia solani [29],25 µg/mL
same,zone of inhibition at 50 µg/mL,Klebsiella pneumoniae [30],11 mm
same,zone of inhibition at 100 µg/mL,Escherichia coli [31],15 mm
same,MIC,Fusarium oxysporum [32],25 µg/mL
same,zone of inhibition at 100 µg/mL,Rhizoctonia solani [33],15 mm
same,zone of inhibition at 300 µg/mL,Klebsiella pneumoniae [34],25 mm
same,zone of inhibition at 200 µg/mL,Staphylococcus aureus [35],15 mm
same,MIC,Klebsiella pneumoniae [36],10 µg/mL
same,zone of inhibition at 500 µg/mL,Staphylococcus aureus [37],28 mm
same,zone of inhibition at 300 µg/mL,Fusarium oxysporum [38],24 mm
same,zone of inhibition at 300 µg/mL,Aspergillus niger [39],14 mm
same,MIC,Escherichia coli [40],10 µg/mL
same,zone of inhibition at 50 µg/mL,Fusarium oxysporum [41],10 mm
same,zone of inhibition at 50 µg/mL,Escherichia coli [42],10 mm
same,zone of inhibition at 200 µg/mL,Rhizoctonia solani [43],19 mm
same,zone of inhibition at 300 µg/mL,Aspergillus flavus [44],13 mm
same,zone of inhibition at 500 µg/mL,Fusarium oxysporum [45],30 mm
same,zone of inhibition at 300 µg/mL,Bacillus subtilis [46],14 mm
same,zone of inhibition at 50 µg/mL,Bacillus subtilis [47],4 mm
same,zone of inhibition at 100 µg/mL,Aspergillus flavus [48],9 mm

# From ChEMBL document CHEMBL2429768, “Eco-friendly synthesis and antimicrobial activities of substituted-5-(1H-indol-3-yl)methylene)-2,2-dimethyl-1,3-dioxane-4,6-dione derivatives” (2013)
